Measurements as given in patent publication US12227495B2, “Herbicidal compounds” (SYNGENTA CROP PROTECTION AG, priority 2018, dated 2025).

Tests used:
Format in all cases: in vivo
Settings in all cases: evaluated after 13 days
Lolium perenne (LOLPE) [1] = experiment: Post-emergence herbicide test, glasshouse, percentage damage
Protocol: (§1) Seeds of a variety of test species are sown in standard soil in pots (Lolium perenne (LOLPE), Solanum nigrum (SOLNI), Amaranthus retoflexus (AMARE), Setaria faberi (SETFA), Echinochloa crus-galli (ECHCG), Ipomoea hederacea (IPOHE)). After cultivation for one day (pre-emergence) or after 8 days cultivation (post-emergence) under controlled conditions in a glasshouse (at 24/16° C., day/night; 14 hours light; 65% humidity), the plants are sprayed with an aqueous spray solution derived from the formulation of the technical active ingredient in acetone/water (50:50) solution containing 0.5% Tween 20 (polyoxyethelyene sorbitan monolaurate, CAS RN 9005-64-5). Compounds are applied at 500 g/ha unless otherwise stated. The test plants are then grown in a glasshouse under controlled conditions in a glasshouse (at 24/16° C., day/night; 14 hours light; 65% humidity) and watered twice daily. After 13 days for pre and post-emergence, the test is evaluated for the percentage damage caused to the plant. The biological activities are shown in the following table on a five point scale (5=81-100%; 4=61-80%; 3=41-60%; 2=21-40%; 1=0-20%).

Solanum nigrum (SOLNI) [2] = experiment: as above
Protocol: as §1

Setaria faberi (SETFA) [3] = experiment: as above
Protocol: as §1

[4] = tested on: Echinochloa crus-galli (ECHCG); experiment: as above
Protocol: as §1

[5] = tested on: Ipomoea hederacea (IPOHE); experiment: as above
Protocol: as §1

[6] = tested on: Amaranthus retoflexus (AMARE); experiment: as above
Protocol: as §1

Lolium perenne (LOLPE) [7] = experiment: Pre-emergence herbicide test, glasshouse, percentage damage
Protocol: as §1

Solanum nigrum (SOLNI) [8] = experiment: as above
Protocol: as §1

Setaria faberi (SETFA) [9] = experiment: as above
Protocol: as §1

[10] = tested on: Echinochloa crus-galli (ECHCG); experiment: as above
Protocol: as §1

[11] = tested on: Ipomoea hederacea (IPOHE); experiment: as above
Protocol: as §1

[12] = tested on: Amaranthus retoflexus (AMARE); experiment: as above
Protocol: as §1

SMILES | percentage damage caused to the plant, LOLPE (Lolium perenne (LOLPE) [1]; 1000 g/ha) | percentage damage caused to the plant, SOLNI (Solanum nigrum (SOLNI) [2]; 1000 g/ha) | percentage damage caused to the plant, SETFA (Setaria faberi (SETFA) [3]; 1000 g/ha) | percentage damage caused to the plant, ECHCG ([4]; 1000 g/ha) | percentage damage caused to the plant, IPOHE ([5]; 1000 g/ha) | percentage damage caused to the plant, AMARE ([6]; 1000 g/ha) | Pre-emergence Test LOLPE percentage damage (five point scale) (Lolium perenne (LOLPE) [7]; rate 1000 g/ha) | Pre-emergence Test SOLNI percentage damage (five point scale) (Solanum nigrum (SOLNI) [8]; rate 1000 g/ha) | Pre-emergence Test SETFA percentage damage (five point scale) (Setaria faberi (SETFA) [9]; rate 1000 g/ha) | Pre-emergence Test ECHCG percentage damage (five point scale) ([10]; rate 1000 g/ha) | Pre-emergence Test IPOHE percentage damage (five point scale) ([11]; rate 1000 g/ha) | Pre-emergence Test AMARE percentage damage (five point scale) ([12]; rate 1000 g/ha) | further results
Fc1cc(C(F)(F)F)cnc1Oc1cccc(F)c1-c1cc(C(F)F)no1 [Compound A21] | 3 (3=41-60%) | 3 (3=41-60%) | 4 (4=61-80%) | 4 (4=61-80%) | 3 (3=41-60%) | 4 (4=61-80%) | 4 (4=61-80%) | 2 (2=21-40%) | 5 (5=81-100%) | 5 (5=81-100%) | 2 (2=21-40%) | 5 (5=81-100%) | 
O=[N+]([O-])c1cnc(Oc2cccc(F)c2-c2cc(C(F)F)no2)c(F)c1 [Compound A22] | 2 (2=21-40%) | 4 (4=61-80%) | 3 (3=41-60%) | 2 (2=21-40%) | 3 (3=41-60%) | 4 (4=61-80%) | 1 (1=0-20%) | 1 (1=0-20%) | 3 (3=41-60%) | 3 (3=41-60%) | 1 (1=0-20%) | 5 (5=81-100%) | 
N#Cc1cnc(Oc2cccc(F)c2-c2cc(C(F)F)no2)c(F)c1 [Compound A23] | 5 (5=81-100%) | 5 (5=81-100%) | 5 (5=81-100%) | 5 (5=81-100%) | 5 (5=81-100%) | 5 (5=81-100%) | 5 (5=81-100%) | 4 (4=61-80%) | 5 (5=81-100%) | 5 (5=81-100%) | 5 (5=81-100%) | 5 (5=81-100%) | 
Fc1cc(Cl)cnc1Oc1ccccc1-n1cc(Cl)cn1 [Compound A24, 5-chloro-2-[2-(4-chloropyrazol-1-yl)phenoxy]-3-fluoro-pyridine] | 3 (3=41-60%) | 4 (4=61-80%) | 4 (4=61-80%) | 4 (4=61-80%) | 3 (3=41-60%) | 4 (4=61-80%) | 4 (4=61-80%) | 3 (3=41-60%) | 5 (5=81-100%) | 5 (5=81-100%) | 3 (3=41-60%) | 5 (5=81-100%) | 
Fc1cc(Cl)cnc1Oc1cccc(F)c1-c1cc(C(F)(F)F)on1 [Compound A25, 3-[2-[(5-chloro-3-fluoro-2-pyridyl)oxy]-6-fluoro-phenyl]-5-(trifluoromethyl)isoxazole] | 5 (5=81-100%) | 5 (5=81-100%) | 5 (5=81-100%) | 4 (4=61-80%) | 4 (4=61-80%) | 5 (5=81-100%) | 5 (5=81-100%) | 5 (5=81-100%) | 5 (5=81-100%) | 5 (5=81-100%) | 5 (5=81-100%) | 5 (5=81-100%) | 
N#Cc1cnn(-c2ccccc2Oc2ncc(Cl)cc2F)c1 [Compound A26] | 3 (3=41-60%) | 5 (5=81-100%) | 5 (5=81-100%) | 5 (5=81-100%) | 3 (3=41-60%) | 5 (5=81-100%) | 5 (5=81-100%) | 5 (5=81-100%) | 5 (5=81-100%) | 5 (5=81-100%) | 4 (4=61-80%) | 5 (5=81-100%) | 
Fc1cc(Cl)cnc1Oc1ccccc1-n1cc(Br)cn1 [Compound A27] |  |  |  |  |  |  |  |  |  |  |  |  | percentage damage caused to the plant, LOLPE (Lolium perenne (LOLPE) [1]; 250 g/ha): 2 (2=21-40%); percentage damage caused to the plant, SOLNI (Solanum nigrum (SOLNI) [2]; 250 g/ha): 5 (5=81-100%); percentage damage caused to the plant, SETFA (Setaria faberi (SETFA) [3]; 250 g/ha): 5 (5=81-100%); percentage damage caused to the plant, ECHCG ([4]; 250 g/ha): 5 (5=81-100%); percentage damage caused to the plant, IPOHE ([5]; 250 g/ha): 2 (2=21-40%); percentage damage caused to the plant, AMARE ([6]; 250 g/ha): 4 (4=61-80%); Pre-emergence Test LOLPE percentage damage (five point scale) (Lolium perenne (LOLPE) [7]; rate 250 g/ha): 3 (3=41-60%); Pre-emergence Test SOLNI percentage damage (five point scale) (Solanum nigrum (SOLNI) [8]; rate 250 g/ha): 5 (5=81-100%); Pre-emergence Test SETFA percentage damage (five point scale) (Setaria faberi (SETFA) [9]; rate 250 g/ha): 4 (4=61-80%); Pre-emergence Test ECHCG percentage damage (five point scale) ([10]; rate 250 g/ha): 5 (5=81-100%); Pre-emergence Test IPOHE percentage damage (five point scale) ([11]; rate 250 g/ha): 1 (1=0-20%); Pre-emergence Test AMARE percentage damage (five point scale) ([12]; rate 250 g/ha): 5 (5=81-100%)
Fc1cc(Cl)cnc1Oc1ccccc1-n1ccnc1 [Compound A28, 5-chloro-3-fluoro-2-(2-imidazol-1-ylphenoxy)pyridine] | 1 (1=0-20%) | 4 (4=61-80%) | 1 (1=0-20%) | 1 (1=0-20%) | 1 (1=0-20%) | 5 (5=81-100%) | 1 (1=0-20%) | 1 (1=0-20%) | 1 (1=0-20%) | 1 (1=0-20%) | 1 (1=0-20%) | 3 (3=41-60%) | 
Fc1cc(Cl)cnc1Oc1ccccc1-n1cncn1 [Compound A29] | 1 (1=0-20%) | 4 (4=61-80%) | 2 (2=21-40%) | 1 (1=0-20%) | 2 (2=21-40%) | 4 (4=61-80%) | 1 (1=0-20%) | 3 (3=41-60%) | 4 (4=61-80%) | 1 (1=0-20%) | 1 (1=0-20%) | 5 (5=81-100%) | 
Fc1cc(Cl)cnc1Oc1cccc(F)c1-c1cc(C(F)F)on1 [Compound A30] | 5 (5=81-100%) | 5 (5=81-100%) | 5 (5=81-100%) | 5 (5=81-100%) | 5 (5=81-100%) | 5 (5=81-100%) | 5 (5=81-100%) | 5 (5=81-100%) | 5 (5=81-100%) | 5 (5=81-100%) | 5 (5=81-100%) | 5 (5=81-100%) | 
Fc1cc(Cl)cnc1Oc1cccc(F)c1-c1cc(C(F)(F)F)no1 [Compound A31] | 5 (5=81-100%) | 5 (5=81-100%) | 5 (5=81-100%) | 5 (5=81-100%) | 5 (5=81-100%) | 5 (5=81-100%) | 5 (5=81-100%) | 5 (5=81-100%) | 5 (5=81-100%) | 5 (5=81-100%) | 5 (5=81-100%) | 5 (5=81-100%) | 
